# Like-named read-outs stand apart in the source and are kept apart here.
# Biological target: T1, Recombinant KAT6A/MOZ (488-778) protein (Homo sapiens, UniProt Q92794)
# T1 construct: Recombinant KAT6A/MOZ (488-778) protein (Active motif, Catalog #81223); purchased Active Motif 81223
# Assay: Kat6a AlphaLISA Inhibition Screening Assay
# Assay type: biochemical
# Procedure: The Kat6a inhibitory activity of test compounds was determined using an Alpha Screen-based detection method. The assay reactions were conducted in a volume of 10 μL in Alpha Plate, White 384 well plate (cat #6008280, Perkin Elmer). The enzymatic reactions were performed in assay buffer pH 8.0 (50 mM Tris-HCl, 0.1 mM EDTA, 0.01% Tween-20, 1 mM Dithiothreitol, 0.1% BSA (fatty acid free) and 330 nM TSA (Trichostatin A)). 10 μL reaction volume consisting of 25 nM of Recombinant KAT6A/MOZ (488-778) protein (Active motif, Catalog #81223), 400 nM Acetyl coenzyme A (Catalog #A2056, Sigma), 200 nM of Histone H3 peptide [(amino acids 1-21), biotin-labeled (BPS Biosciences, Catalog #52011,)] and a 10-point dose response curve for test/tool compounds were prepared. Enzyme and compounds solution were pre-incubated in assay plate for 60 or 10 min at room temperature then substrate and Acetyl coenzyme A solution were added to the plate. After addition, the plate was sealed with adhesive seals and incubated for 120 minutes at room temperature.
# After 120 minutes of incubation, 5 μL (10 μg/mL) of AlphaLISA anti-acetyl-Lysine acceptor beads (Perkin Elmer, Catalog #AL143C) were added to the plate and it was incubated for 60 minutes at room temperature. Then 10 μL (10 μg/mL) of Alpha Streptavidin donor beads (Perkin Elmer, Catalog #6760002S) were added to the plate which was further incubated for 60 minutes at room temperature. After incubation, the alpha signal was recorded by using Perkin Elmer Envision multi-mode reader.
# NA means the compound was not active at the concentration tested. […] NT means not tested.
# [1] = 60′ pre-incubation, Table 3, read-out: Kat6A Biochemical assay: IC50
# [2] = 10′ pre-incubation, Table 2, read-out: Kat6A biochemical assay: IC50
# [3] = 60′ pre-incubation, Table 2, read-out: Kat6A biochemical assay: IC50
# T1 sequence (Q92794 488-778): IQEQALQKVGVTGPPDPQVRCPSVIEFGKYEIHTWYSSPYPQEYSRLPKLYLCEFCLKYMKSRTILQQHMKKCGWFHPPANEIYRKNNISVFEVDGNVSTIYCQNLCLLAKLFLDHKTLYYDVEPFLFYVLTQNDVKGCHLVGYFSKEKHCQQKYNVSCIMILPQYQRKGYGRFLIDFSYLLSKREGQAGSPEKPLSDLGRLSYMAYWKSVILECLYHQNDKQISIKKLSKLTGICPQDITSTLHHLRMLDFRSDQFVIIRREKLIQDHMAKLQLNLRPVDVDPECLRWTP
IC50 [1] [µM],SMILES,other results
≤ 10,"C#CC(=O)N1CCN(c2cccc(-c3cc(OC)c4c(NS(=O)(=O)c5ccccc5OC)noc4c3)c2)CC1 [compound 74, 2-methoxy-N-(4-methoxy-6-(3-(4-propioloylpiperazin-1-yl)phenyl)benzo[d]isoxazol-3-yl)benzenesulfonamide]",
,C#CC(=O)NCc1ccnc(-c2cc(C)cc(C(=O)NNS(=O)(=O)c3ccccc3F)c2)c1 [compound 13],IC50 [2]: ≤ 10 µM
,"C=CS(=O)(=O)NCc1ccn(Cc2cc(OC)c3c(NS(=O)(=O)c4ccccc4OC)noc3c2)n1 [Synthetic Example 22, 2-methoxy-N-(4-methoxy-6-((3-(vinylsulfonamidomethyl)-1H-pyrazol-1-yl)methyl)benzo[d]isoxazol-3-yl)benzenesulfonamide]",IC50 [3]: ≤ 10 µM
≤ 10,"C#CC(=O)N1CCN(c2nc(-c3cc(OC)c4c(NS(=O)(=O)c5c(OC)cccc5OC)noc4c3)cs2)CC1 [compound 97, 2,6-dimethoxy-N-(4-methoxy-6-(2-(4-propioloylpiperazin-1-yl)thiazol-4-yl)benzo[d]isoxazol-3-yl)benzenesulfonamide]",
≤ 10,"C=CS(=O)(=O)NC1CCN(Cc2cc(OC)c3c(NS(=O)(=O)c4ccccc4OC)noc3c2)CC1 [compound 77, 2-methoxy-N-(4-methoxy-6-((4-(vinylsulfonamido)piperidin-1-yl)methyl)benzo[d]isoxazol-3-yl)benzenesulfonamide]",
,"C=CC(=O)NC1CCN(Cc2cc(OC)c3c(NS(=O)(=O)c4ccccc4OC)noc3c2)CC1 [Synthetic Example 49, N-(1-((4-methoxy-3-((2-methoxyphenyl)sulfonamido)benzo[d]isoxazol-6-yl)methyl)piperidin-4-yl)acrylamide]",IC50 [3]: ≤ 10 µM
,"C=CC(=O)NCc1ccnc(-c2cc(C)cc(C(=O)NNS(=O)(=O)c3c(OC)cccc3OC)c2)c1 [Synthetic Example 15, N-((2-(3-(2-((2,6-dimethoxyphenyl)sulfonyl)hydrazine-1-carbonyl)-5-methylphenyl)pyridin-4-yl)methyl)acrylamide]",IC50 [3]: ≤ 10 µM
> 10,"C#CC(=O)N1CCN(c2cccc(-c3cc(OC)c4c(NS(=O)(=O)c5cc(CC)ccc5OC)noc4n3)c2)CC1 [compound 114, 25-ethyl-2-methoxy-N-(4-methoxy-6-(3-(4-propioloylpiperazin-1-yl)phenyl)isoxazolo[5,4-b]pyridin-3-yl)benzenesulfonamide]",
≤ 10,"C#CC(=O)N1CCN(c2cc(O)cc(-c3cc(OC)c4c(NS(=O)(=O)c5c(OC)cccc5OC)noc4c3)c2)CC1 [compound 115, N-(6-(3-hydroxy-5-(4-propioloylpiperazin-1-yl)phenyl)-4-methoxybenzo[d]isoxazol-3-yl)-2,6-dimethoxybenzenesulfonamide]",
≤ 10,"C#CC(=O)NCc1cnn(-c2cc(C)nc(C(=O)NNS(=O)(=O)c3ccccc3F)c2)c1 [compound 91, N-((1-(2-(2-((2-fluorophenyl)sulfonyl) hydrazine-1-carbonyl)-6-methylpyridin-4-yl)-1H-pyrazol-4-yl)methyl) propiolamide]",
,"C#CC(=O)N(C)Cc1cnn(Cc2cc(OC)c3c(NS(=O)(=O)c4ccccc4OC)noc3c2)c1 [Synthetic Example 45, N-((1-((4-methoxy-3-((2-methoxyphenyl)sulfonamido)benzo[d]isoxazol-6-yl)methyl)-1H-pyrazol-4-yl)methyl)-N-methylpropiolamide]",IC50 [3]: ≤ 10 µM
≤ 10,C=CS(=O)(=O)NCCOCc1cc(OC)c2c(NS(=O)(=O)c3cc(CC)ccc3OC)noc2c1 [compound 107],
≤ 10,"C#CC(=O)N1CCN(c2ccnc(-c3cc(C)cc(C(=O)NNS(=O)(=O)c4ccccc4F)c3)c2)CC1 [compound 103, 2-fluoro-N′-(3-methyl-5-(4-(4-propioloylpiperazin-1-yl)pyridin-2-yl)benzoyl) benzenesulfonohydrazide]",
≤ 10,"C#CC(=O)NCc1cnn(Cc2cc(OC)c3c(NS(=O)(=O)c4cc(C(=O)NC)ccc4OC)noc3c2)c1 [compound 85, 4-methoxy-3-(N-(4-methoxy-6-((4-(propiolamidomethyl)-1H-pyrazol-1-yl)methyl)benzo[d]isoxazol-3-yl)sulfamoyl)-N-methylbenzamide]",
≤ 10,CCc1ccc(OC)c(S(=O)(=O)Nc2noc3cc(Cn4cc(CNS(C)(=O)=O)cn4)cc(OC)c23)c1 [compound 116],
≤ 10,COc1ccccc1S(=O)(=O)Nc1noc2cc(Cn3ncc4c3CN(S(=O)(=O)c3c(F)c(F)c(F)c(F)c3F)C4)cc(OC)c12 [compound 82],
,"COc1cc(Cn2cccn2)cc2c1c(NS(=O)(=O)CC1CCCCC1)nn2C [compound 121, N-(6-((1H-pyrazol-1-yl)methyl)-4-methoxy-1-methyl-1H-indazol-3-yl)-1-cyclohexylmethanesulfonamide]","IC50 (10′ pre-incubation, Table 3, read-out: Kat6A Biochemical assay: IC50): 10 to 20 µM"
≤ 10,"C#CC(=O)N1CCN(c2cnc(-c3cc(OC)c4c(NS(=O)(=O)c5c(OC)cccc5OC)noc4c3)s2)CC1 [compound 102, 2,6-dimethoxy-N-(4-methoxy-6-(5-(4-propioloylpiperazin-1-yl)thiazol-2-yl)benzo[d]isoxazol-3-yl)benzenesulfonamide]",
≤ 10,"C#CC(=O)NCc1cnn(Cc2cc(OC)c3c(NS(=O)(=O)c4ccccc4OC)n[nH]c3c2)c1 [compound 76, N-((1-((4-methoxy-3-((2-methoxyphenyl)sulfonamido)-1H-indazol-6-yl)methyl)-1H-pyrazol-4-yl)methyl)propiolamide]",
,"C#CC(=O)NCc1ccn(Cc2cc(OC)c3c(NS(=O)(=O)CC4CCCCC4)noc3c2)n1 [Synthetic Example 8, N-((1-((3-((cyclohexylmethyl)sulfonamido)-4-methoxybenzo[d]isoxazol-6-yl)methyl)-1H-pyrazol-3-yl)methyl)propiolamide]",IC50 [2]: ≤ 10 µM
,"C#CC(=O)NCc1cnn(Cc2cc(OC)c3c(NS(=O)(=O)c4cccc(C(=O)NC)c4)noc3c2)c1 [Synthetic Example 52, 3-(N-(4-methoxy-6-((4-(propiolamidomethyl)-1H-pyrazol-1-yl)methyl)benzo[d]isoxazol-3-yl)sulfonyl)-N-methylbenzamide]",IC50 [3]: ≤ 10 µM
≤ 10,"COc1ccccc1S(=O)(=O)Nc1noc2cc(Cn3cc(CNS(=O)(=O)c4ccccc4)cn3)cc(OC)c12 [compound 79, 2-methoxy-N-(4-methoxy-6-((4-(phenylsulfonamidomethyl)-1H-pyrazol-1-yl)methyl)benzo[d]isoxazol-3-yl)benzenesulfonamide]",
≤ 10,"C#CC(=O)N1CCN(c2ccnc(-c3cc(OC)c4c(NS(=O)(=O)c5c(OC)cccc5OC)noc4c3)c2)CC1 [compound 119, 2,6-dimethoxy-N-(4-methoxy-6-(4-(4-propioloylpiperazin-1-yl)pyridin-2-yl)benzo[d]isoxazol-3-yl)benzenesulfonamide]",
,"CCC(=O)NCc1ccn(Cc2cc(OC)c3c(NS(=O)(=O)CC4CCCCC4)noc3c2)n1 [Synthetic Example 9, N-((1-((3-((cyclohexylmethyl)sulfonamido)-4-methoxybenzo[d]isoxazol-6-yl)methyl)-1H-pyrazol-3-yl)methyl)propionamide]",IC50 [2]: ≤ 10 µM
,"C#CC(=O)NC1CCN(Cc2cc(OC)c3c(NS(=O)(=O)c4ccccc4OC)noc3c2)C1 (stereo not drawn) [Synthetic Example 48, N-(1-((4-methoxy-3-((2-methoxyphenyl)sulfonamido)benzo[d]isoxazol-6-yl)methyl)pyrrolidin-3-yl)propiolamide]",IC50 [3]: ≤ 10 µM
,C=CS(=O)(=O)N1C[C@H]2CN(Cc3cc(OC)c4c(NS(=O)(=O)c5ccccc5OC)noc4c3)C[C@H]2C1 [Synthetic Example 59],IC50 [3]: ≤ 10 µM

SMILES,IC50 [1] [µM],other results
"C#CC(=O)N1CCCN(c2cnc(-c3cc(OC)c4c(NS(=O)(=O)c5cc(CC)ccc5OC)noc4c3)s2)CC1 [compound 104, 5-ethyl-2-methoxy-N-(4-methoxy-6-(5-(4-propioloyl-1,4-diazepan-1-yl)thiazol-2-yl)benzo[d]isoxazol-3-yl) benzenesulfonamide]",≤ 10,
"COc1ccccc1S(=O)(=O)Nc1noc2cc(Cn3cc(CNS(=O)(=O)c4cccnc4Cl)cn3)cc(OC)c12 [compound 84, 2-chloro-N-((1((4methoxy3((2methoxyphenyl)sulfonamido)benzo[d]isoxazol-6-yl)methyl)-1H-pyrazol-4-yl)methyl) pyridine-3-sulfonamide]",≤ 10,
"C#CC(=O)N1CCN(c2ncc(-c3cc(OC)c4c(NS(=O)(=O)c5c(OC)cccc5OC)noc4c3)s2)CC1 [compound 106, 2,6-dimethoxy-N-(4-methoxy-6-(2-(4-propioloylpiperazin-1-yl)thiazol-5-yl)benzo[d]isoxazol-3-yl) benzenesulfonamide]",≤ 10,
"C#CC(=O)N1CC[C@H](OCc2cc(OC)c3c(NS(=O)(=O)c4cc(CC)ccc4OC)noc3c2)C1 [compound 109, (S)-5-ethyl-2-methoxy-N-(4-methoxy-6-(((1-propioloylpyrrolidin-3-yl)oxy)methyl)benzo[d]isoxazol-3-yl) benzenesulfonamide]",≤ 10,
